Source: BindingDB's records for patent US20250099442 (Prothena Biosciences, 2025)

target: Dual specificity tyrosine-phosphorylation-regulated kinase 1A (Homo sapiens, UniProt Q13627); test: DYRK1A Inhibition Assay
Experimental: Assay Procedure1. Add 5 μL enzyme & substrate mixture to each well in Column 2-23 and A24-H24 wells of the 384-well assay plate;2. Add 5 μL 0% Phosphorylation control to A1-H1 and I24-P24 wells of the assay plate;3. Add 5 μL 100% Phosphorylation control to I1-P1 wells of the assay plate;4. Spin the assay plate (1000 rpm, 1 minute @23° C.);5. Incubate enzyme with compounds for 15 minutes at 23° C.;6. Add 5 μL ATP solution to each well of the assay plate;7. Spin the plate (1000 rpm, 1 minute @23° C.);8. Incubate the assay plate for 90 minutes at 23° C.;9. Add 10 μL Development reagent A to each well of the assay plate;10. Centrifuge the plate at 1000 rpm about 15 seconds and seal a film over assay plate. Incubate the assay plate for 30 minutes at 23° C.11. Read assay plates on Envision

Structure (SMILES)	IC50 [µM]
Cn1ncc2ccc(-c3cncc(O[C@@H]4Cc5ccccc5[C@@H]4N)c3)cc21 [US20250099442, Compound I.37]	0.1 to 1
COc1cccc(-c2nc3cc(NS(C)(=O)=O)cnc3s2)c1 [US20250099442, Compound I.12]	> 1
Cc1cc(-c2cnn3cc(-c4ccc5cnccc5c4)n(C)c(=O)c23)ccn1 [US20250099442, Compound I.80]	0.1 to 1
Fc1ccc(COc2cc(-c3ccc4c(c3)CCO4)ccn2)cc1F [US20250099442, Compound I.35]	> 1
c1cc(Cc2cnc3ccc(-c4ccncc4)cn23)c2cn[nH]c2c1 [US20250099442, Compound I.28]	0.1 to 1
c1cc(-c2cnc3[nH]cc(C4CCC4)c3c2)ccn1 [US20250099442, Compound I.16]	> 1
c1cc(-c2ccc3nc4n(c3c2)CCNC4)ccn1 [US20250099442, Compound I.48]	0.1 to 1
Cc1c(-c2ccncc2)cn2cnc(NC(=O)C3[C@H]4CN(C)C[C@@H]34)cc12 (stereo partly drawn) [US20250099442, Compound I.73]	0.01 to 0.1
c1cncc(-c2cc3c(-c4ccc5c(c4)CCO5)cncc3o2)c1 [US20250099442, Compound I.11]	> 1
CS(=O)(=O)Nc1cnc2sc(-c3cccc(O)c3)nc2c1 [US20250099442, Compound I.13]	> 1
CN1CCn2c(nc3ccc(-c4ccncc4)cc32)C1 [US20250099442, Compound I.50]	> 1
CCCOc1cc(COC2CCN(C)CC2)nc2[nH]cc(C(F)(F)F)c12 [US20250099442, Compound II.7]	< 0.5
CCN1CCC(C(=O)Nc2cc(-c3ccc4ncn(C(F)F)c4c3)ccn2)CC1 [US20250099442, Compound I.93]	0.01 to 0.1
c1cncc(-c2ccc3cncc(OC4CCNC4)c3c2)c1 (stereo not drawn) [US20250099442, Compound I.87]	0.1 to 1
O=C(O)c1ccc(-c2cnc3n2CCN(c2cccnc2)C3)cc1 [US20250099442, Compound I.78]	0.1 to 1
CN1CCC(C(=O)Nc2cc(-c3cc(Cl)cc4ncccc34)ccn2)CC1 [US20250099442, Compound I.56]	0.1 to 1
NC(=O)c1ccc(-c2cnc3[nH]cc(C4CCC4)c3c2)cc1 [US20250099442, Compound I.15]	0.1 to 1
CC(=O)Nc1ccc2cnc(NC(=O)C3CCN(C)CC3)cc2c1 [US20250099442, Compound II.22]	< 0.5

Structure (SMILES)	IC50 [µM]
c1cc(-c2ccc3c(c2)CCO3)cc(OCC2CCCCN2)n1 (stereo not drawn) [US20250099442, Compound I.36]	0.1 to 1
CN1C[C@@H]2C(C(=O)Nc3nc4ccc(-c5cccnc5)nc4s3)[C@@H]2C1 (stereo partly drawn) [US20250099442, Compound I.70]	0.1 to 1
C[C@@H]1CC(C(=O)Nc2cn3cc(-c4ccncc4)ccc3n2)C[C@H](C)N1 (stereo partly drawn) [US20250099442, Compound I.65]	0.01 to 0.1
Cc1cc(-c2ccnc(NC(=O)C3CCN(C)CC3)c2)c2ocnc2c1 [US20250099442, Compound I.57]	0.1 to 1
CC(C)CN1CCC(O)(C#Cc2ccc3c(-c4ccncc4)c[nH]c3n2)CC1 [US20250099442, Compound I.96]	0.1 to 1
CC(C)CN1CCC(CNc2nccc(-c3cn(C(C)C)c4cnccc34)n2)CC1 [US20250099442, Compound I.9]	0.1 to 1
CN1CCC(C(=O)Nc2cc(-c3cc(=O)n(C)c4ccccc34)ccn2)CC1 [US20250099442, Compound I.55]	0.01 to 0.1
CC(C)CN1CCC(C#Cc2cc(-c3cn(C4CCOCC4)c4cnccc34)ccn2)CC1 [US20250099442, Compound I.100]	0.01 to 0.1
O=C(O)c1ccc(-c2cnc3n2CC(=O)N(C2CCOCC2)C3)cc1 [US20250099442, Compound I.81]	> 1
COc1cc(-c2ccnc(NC(=O)C3CCN(C)CC3)c2)cc2cnccc12 [US20250099442, Compound I.60]	0.01 to 0.1
Cn1nc2cnccc2c1-c1ccnc(NC(=O)C2CC2)c1 [US20250099442, Compound I.25]	> 1
CC(C)CN1CCC(CNc2cc(-c3cn(C(C)C)c4cnccc34)ccn2)CC1 [US20250099442, Compound I.6]	0.01 to 0.1
CC(C)CN1CCC(C#Cc2nc3ccc(-c4ccnc(N)c4)nc3n2C2CC2)CC1 [US20250099442, Compound I.99]	0.01 to 0.1
O=S(=O)(c1ccc(F)cc1)N1CCCC(n2cnc3ccc(-c4ccncc4)cc32)C1 (stereo not drawn) [US20250099442, Compound I.39]	0.1 to 1
N#Cc1ccc(S(=O)(=O)N2CCCC(n3cnc4ccc(-c5ccncc5)cc43)C2)cc1 (stereo not drawn) [US20250099442, Compound I.33]	0.1 to 1
COCCn1nc2cnccc2c1-c1ccnc(NC(=O)C2CC2)c1 [US20250099442, Compound I.26]	> 1
CC(C)CN1CCC(C(=O)Nc2nccc(-c3cn(C(C)C)c4cnccc34)n2)CC1 [US20250099442, Compound I.8]	0.01 to 0.1

The next lines start with the values.

IC50 [µM]	Structure (SMILES)
0.01 to 0.1	c1cc(-c2c[nH]c3cnccc23)ccn1 [US20250099442, Compound I.1]
< 0.01	CN1C2CCC1CC(C(=O)Nc1nc3ccc(-c4ccncc4)nc3s1)C2 (stereo not drawn) [US20250099442, Compound I.69]
0.01 to 0.1	COc1cc(-c2ccc3nc(NC(=O)C4C5CC4CN(C)C5)sc3c2)ccn1 (stereo not drawn) [US20250099442, Compound I.43]
< 0.01	CC(C)CN1CCC(C(=O)Nc2cc(-c3c[nH]c4cnccc34)ccn2)CC1 [US20250099442, Compound I.3]
0.01 to 0.1	CN1CCC(N2CCn3c(nc4ccc(-c5ccncc5)cc43)C2)CC1 [US20250099442, Compound I.49]
0.01 to 0.1	Cc1cc(-c2cn3ncc(-c4ccc(O)c(C#N)c4)c3c(=O)n2C)ccn1 [US20250099442, Compound I.84]
< 0.01	CC(C)CN1CCC(C(=O)Nc2cc(-c3cn(C(C)C)c4cnccc34)ccn2)CC1 [US20250099442, Compound I.4]
0.01 to 0.1	Cc1c(-c2ccncc2)cn2cnc(NC(=O)C3C4CNCC43)cc12 (stereo not drawn) [US20250099442, Compound I.74]
0.01 to 0.1	CC(C)CN1CCC(C(=O)Nc2cc(-c3ccc4nn(C)cc4c3)ccn2)CC1 [US20250099442, Compound I.18]
0.01 to 0.1	CN1CCC(C(=O)Nc2cc3cc(-c4ccncc4)cn3cn2)CC1 [US20250099442, Compound I.58]
0.01 to 0.1	COc1cc(-c2ccc3nc(NC(=O)C4CN(C)C4)sc3c2)ccn1 [US20250099442, Compound I.46]
0.01 to 0.1	C[C@@H]1CC(C(=O)Nc2cn3cc(-c4ccncc4)ccc3n2)C[C@H](C)N1C (stereo partly drawn) [US20250099442, Compound I.66]
0.01 to 0.1	CN1CCC(C(=O)Nc2ncc(-c3ccc4ncn(C)c4c3)s2)CC1 [US20250099442, Compound I.102]
< 0.01	C(#CC1CCOCC1)c1cc(-c2cn(C3CCOCC3)c3cnccc23)ccn1 [US20250099442, Compound I.92]
< 0.01	CC(C)n1cc(-c2ccncc2)c2ccncc21 [US20250099442, Compound I.2]
< 0.01	CN1CCC(C#Cc2cc(-c3cn(C4CCOCC4)c4cnccc34)ccn2)CC1 [US20250099442, Compound I.91]
< 0.01	CN1CCC(C(=O)Nc2ccc3c(-c4ccncc4)c[nH]c3n2)CC1 [US20250099442, Compound I.67]
< 0.01	CN1CCC(C(=O)Nc2cn3cc(-c4ccncc4)ccc3n2)CC1 [US20250099442, Compound I.42]
